Results on five molecules are retold here after paper PMC4405286, “Extracellular vesicle sorting of α-Synuclein is regulated by sumoylation” (Acta Neuropathologica, 2015).

For orientation: Kd means the equilibrium constant for the complex coming apart. Read a high Kd as lower affinity.

Where two headings read alike, the source gives them in different places.

In the experiment the target is T1, SUMO-2 (Homo sapiens, UniProt P55854).
T1 construct: gene SUMO3; recombinant, untagged as far as told, pET11, E. coli (NMR, 15N-labelled); for titrations single Cys labelled with MFM probe
Put plainly: fluorescence titration of MFM-labelled protein with SUVs, global fit. The class given is binding.

Setting [1] is: SUVs POPC:POPS:PI 85:10:5, too weak to be determined, bound set by POPS, acyl chains not given, MFM-labelled protein, 25 mM Na-HEPES, 100 mM KCl, pH 7.26, room temperature.

T1 sequence (P55854 1-92): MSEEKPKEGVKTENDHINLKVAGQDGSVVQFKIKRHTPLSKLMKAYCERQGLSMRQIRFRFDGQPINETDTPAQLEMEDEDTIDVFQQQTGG

The molecule `CCCCCCCC/C=C\CCCCCCCC(=O)O[C@H](COC(=O)CCCCCCCCCCCCCCC)COP(=O)([O-])OCC[N+](C)(C)C` [POPC, 1-palmitoyl,2-oleoyl-sn-glycero-3-phosphocholine] gave a Kd of 180 ± 42 µM.

In the case of PI(5)P, the dissociation constant (Kd) under setting [1] was greater than 7 µM.

The molecule PI(3)P displayed a Kd (lipid in SUVs POPC:POPS:PI 85:10:5, per-lipid Kd from global fit, includes binding stoichiometry, acyl chains not given, MFM-labelled protein, 25 mM Na-HEPES, 100 mM KCl, pH 7.26, room temperature) of roughly 4 µM.

Turning to PI(4,5)P2, the equilibrium dissociation constant (Kd) under setting [1] was greater than 7 µM.

On to PI(3,5)P2, for which the Kd under setting [1] is greater than 7 µM.
